Measured values taken from publication PMC2275798 (The Journal of biological chemistry, 2007).

Assays:
[1] = biological target: T1, LSECtin carbohydrate-recognition domain (CRD) (Homo sapiens, UniProt Q6UXB4); assay type: binding
T1 sequence (Q6UXB4 160-293): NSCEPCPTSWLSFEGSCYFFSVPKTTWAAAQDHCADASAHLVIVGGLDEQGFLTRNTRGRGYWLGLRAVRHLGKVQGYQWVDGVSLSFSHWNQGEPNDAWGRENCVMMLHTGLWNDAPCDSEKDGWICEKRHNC

[2] = biological target: T1, LSECtin carbohydrate-recognition domain (CRD); assay type: binding; remark: listed apart in the source
[3] = biological target: T2, Ebola virus surface glycoprotein GP1 (Fc fusion) GP1 (Zaire ebolavirus, UniProt Q05320)
T2 chain: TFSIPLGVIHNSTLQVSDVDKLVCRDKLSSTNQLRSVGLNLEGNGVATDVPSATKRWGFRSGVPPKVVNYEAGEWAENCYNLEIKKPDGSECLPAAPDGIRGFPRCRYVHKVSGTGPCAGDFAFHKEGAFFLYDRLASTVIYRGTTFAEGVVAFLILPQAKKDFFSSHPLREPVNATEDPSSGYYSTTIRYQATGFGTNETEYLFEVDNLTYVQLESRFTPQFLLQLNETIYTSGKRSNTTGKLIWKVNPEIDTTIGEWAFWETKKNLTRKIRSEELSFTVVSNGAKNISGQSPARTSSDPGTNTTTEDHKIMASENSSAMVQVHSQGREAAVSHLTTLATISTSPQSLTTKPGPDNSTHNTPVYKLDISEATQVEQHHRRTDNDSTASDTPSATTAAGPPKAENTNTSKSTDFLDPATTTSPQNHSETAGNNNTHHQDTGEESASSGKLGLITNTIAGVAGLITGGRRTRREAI

For `CC(=O)N[C@H]1[C@H](O[C@@H]2C(O)O[C@H](CO)[C@@H](O)[C@@H]2O)O[C@H](CO)[C@@H](O)[C@@H]1O` (stereo partly drawn) [GlcNAcβ1-2Man], which Ki [1] is on record?
The Ki was 3500 nM.

With `OC[C@H]1O[C@H](OC[C@H]2OC(O)[C@@H](O)[C@@H](O[C@H]3O[C@H](CO)[C@@H](O)[C@H](O)[C@@H]3O)[C@@H]2O)[C@@H](O)[C@@H](O)[C@@H]1O` (stereo partly drawn) [branched trimannose oligosaccharide] as the molecule, how does the KI [2] read?
Its KI is “The branched trimannose oligosaccharide, which forms the core of the complex glycans”.

B1: LSECtin CRD (protein)
chain: FEGSCYFFSVPKTTWAAAQDHCADASAHLVIVGGLDEQGFLTRNTRGRGYWLGLRAVRHLGKVQGYQWVDGVSLSFSHWNQGEPNDAWGRENCVMMLHTGLWNDAPCDSEKDGWIC
How did the Kd [3] turn out when B1 was run?
Its Kd is 3.7 nM.
